Reference: publication PMC6704710, “Preclinical evaluation of 3D185, a novel potent inhibitor of FGFR1/2/3 and CSF-1R, in FGFR-dependent and macrophage-dominant cancer models” (Journal of Experimental & Clinical Cancer Research : CR, 2019)

How the values were obtained:
Assay in all cases: Eurofins kinase panel
Type in all cases: biochemical
Settings in all cases: read-out: Inhibition rate (%)
GRK5(h) = biological target: T1, GRK5(h) (Homo sapiens, UniProt P34947)
T1 construct: purchased Eurofins (KinaseProfiler)
T1 sequence (P34947 whole entry): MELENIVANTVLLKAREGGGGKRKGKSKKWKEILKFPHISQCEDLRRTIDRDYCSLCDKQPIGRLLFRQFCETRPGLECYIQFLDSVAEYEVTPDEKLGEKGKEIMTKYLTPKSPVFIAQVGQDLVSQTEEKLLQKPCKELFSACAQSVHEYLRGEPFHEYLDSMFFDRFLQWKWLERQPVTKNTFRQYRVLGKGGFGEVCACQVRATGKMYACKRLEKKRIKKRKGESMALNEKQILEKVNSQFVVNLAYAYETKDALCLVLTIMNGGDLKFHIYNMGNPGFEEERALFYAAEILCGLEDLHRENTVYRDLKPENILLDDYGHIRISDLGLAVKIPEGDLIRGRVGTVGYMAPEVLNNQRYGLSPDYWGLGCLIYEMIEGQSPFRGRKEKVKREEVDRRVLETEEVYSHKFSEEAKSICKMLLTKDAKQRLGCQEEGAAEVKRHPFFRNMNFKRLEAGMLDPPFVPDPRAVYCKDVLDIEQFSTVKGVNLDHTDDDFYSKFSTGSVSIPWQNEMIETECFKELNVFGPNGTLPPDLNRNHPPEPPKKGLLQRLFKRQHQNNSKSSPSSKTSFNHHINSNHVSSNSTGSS

PKCδ(h) = biological target: T2, PKCδ(h) (Homo sapiens, UniProt Q05655)
T2 construct: purchased Eurofins (KinaseProfiler)

Met(D1246N)(h) = biological target: T3, Met(D1246N)(h) (Homo sapiens, UniProt P08581, D1228N)
T3 construct: purchased Eurofins (KinaseProfiler)
T3 sequence (P08581 956-1390 D1228N limits assumed): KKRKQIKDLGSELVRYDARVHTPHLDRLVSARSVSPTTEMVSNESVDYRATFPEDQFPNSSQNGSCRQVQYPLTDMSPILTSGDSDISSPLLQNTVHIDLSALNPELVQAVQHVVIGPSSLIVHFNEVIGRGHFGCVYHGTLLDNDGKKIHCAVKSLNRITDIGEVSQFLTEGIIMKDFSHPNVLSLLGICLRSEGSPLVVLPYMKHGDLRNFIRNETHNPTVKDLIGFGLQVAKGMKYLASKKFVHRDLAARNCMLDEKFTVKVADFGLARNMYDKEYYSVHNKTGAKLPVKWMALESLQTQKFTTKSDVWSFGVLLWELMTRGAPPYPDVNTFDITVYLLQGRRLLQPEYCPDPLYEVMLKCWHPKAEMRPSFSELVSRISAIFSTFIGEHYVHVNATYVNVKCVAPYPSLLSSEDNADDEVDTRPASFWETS

SAPK2b(h) = biological target: T4, SAPK2b(h) (Homo sapiens, UniProt Q15759)
T4 construct: purchased Eurofins (KinaseProfiler)
T4 sequence (Q15759 whole entry): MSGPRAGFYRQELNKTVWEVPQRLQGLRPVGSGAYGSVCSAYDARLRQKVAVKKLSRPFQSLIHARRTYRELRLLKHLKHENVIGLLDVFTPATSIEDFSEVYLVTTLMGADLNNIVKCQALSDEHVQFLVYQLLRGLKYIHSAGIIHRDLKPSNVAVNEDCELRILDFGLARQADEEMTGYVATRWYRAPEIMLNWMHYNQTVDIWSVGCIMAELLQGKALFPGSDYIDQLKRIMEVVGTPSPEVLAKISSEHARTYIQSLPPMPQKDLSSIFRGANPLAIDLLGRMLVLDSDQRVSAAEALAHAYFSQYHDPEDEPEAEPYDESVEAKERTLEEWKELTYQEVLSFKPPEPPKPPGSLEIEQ

Fgr(h) = biological target: T5, Fgr(h) (Homo sapiens, UniProt P09769)
T5 construct: purchased Eurofins (KinaseProfiler)

SAPK2a(h) = biological target: T6, SAPK2a(h) (Homo sapiens, UniProt Q16539)
T6 construct: purchased Eurofins (KinaseProfiler)

CK1γ3(h) = biological target: T7, CK1γ3(h) (Homo sapiens, UniProt Q9Y6M4)
T7 construct: purchased Eurofins (KinaseProfiler)
T7 sequence (Q9Y6M4 whole entry): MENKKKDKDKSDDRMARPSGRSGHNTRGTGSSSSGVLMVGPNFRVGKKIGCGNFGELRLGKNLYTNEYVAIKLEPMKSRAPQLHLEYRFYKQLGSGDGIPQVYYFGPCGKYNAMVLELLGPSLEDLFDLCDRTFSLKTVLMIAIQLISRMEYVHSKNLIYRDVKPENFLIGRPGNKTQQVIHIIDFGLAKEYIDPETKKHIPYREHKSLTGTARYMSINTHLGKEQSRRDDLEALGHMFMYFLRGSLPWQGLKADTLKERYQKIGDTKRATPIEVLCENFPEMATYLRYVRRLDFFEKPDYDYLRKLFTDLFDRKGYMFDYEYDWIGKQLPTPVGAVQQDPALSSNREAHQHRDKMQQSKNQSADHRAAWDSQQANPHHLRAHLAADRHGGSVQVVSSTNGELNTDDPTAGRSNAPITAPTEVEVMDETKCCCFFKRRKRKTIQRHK

DAPK2(h) = biological target: T8, DAPK2(h) (Homo sapiens, UniProt Q9UIK4)
T8 construct: purchased Eurofins (KinaseProfiler)
T8 sequence (Q9UIK4 whole entry): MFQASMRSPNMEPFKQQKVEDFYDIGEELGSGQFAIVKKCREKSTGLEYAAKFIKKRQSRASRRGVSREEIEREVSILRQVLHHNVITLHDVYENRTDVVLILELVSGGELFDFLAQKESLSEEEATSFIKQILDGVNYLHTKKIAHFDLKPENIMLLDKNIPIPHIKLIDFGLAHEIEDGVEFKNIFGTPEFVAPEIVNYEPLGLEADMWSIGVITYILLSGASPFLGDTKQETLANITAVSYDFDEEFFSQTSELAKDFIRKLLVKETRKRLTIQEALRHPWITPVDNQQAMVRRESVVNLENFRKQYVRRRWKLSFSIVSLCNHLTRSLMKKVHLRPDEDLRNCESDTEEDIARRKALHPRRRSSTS

MAPK1(h) = biological target: T9, MAPK1(h) (Homo sapiens, UniProt P27361)
T9 construct: purchased Eurofins (KinaseProfiler)

cKit(V560G)(h) = biological target: T10, cKit(V560G)(h) (Homo sapiens, UniProt P10721, V560G)
T10 construct: purchased Eurofins (KinaseProfiler)

DDR2(h) = biological target: T11, DDR2(h) (Homo sapiens, UniProt Q16832)
T11 construct: purchased Eurofins (KinaseProfiler)
T11 sequence (Q16832 22-855): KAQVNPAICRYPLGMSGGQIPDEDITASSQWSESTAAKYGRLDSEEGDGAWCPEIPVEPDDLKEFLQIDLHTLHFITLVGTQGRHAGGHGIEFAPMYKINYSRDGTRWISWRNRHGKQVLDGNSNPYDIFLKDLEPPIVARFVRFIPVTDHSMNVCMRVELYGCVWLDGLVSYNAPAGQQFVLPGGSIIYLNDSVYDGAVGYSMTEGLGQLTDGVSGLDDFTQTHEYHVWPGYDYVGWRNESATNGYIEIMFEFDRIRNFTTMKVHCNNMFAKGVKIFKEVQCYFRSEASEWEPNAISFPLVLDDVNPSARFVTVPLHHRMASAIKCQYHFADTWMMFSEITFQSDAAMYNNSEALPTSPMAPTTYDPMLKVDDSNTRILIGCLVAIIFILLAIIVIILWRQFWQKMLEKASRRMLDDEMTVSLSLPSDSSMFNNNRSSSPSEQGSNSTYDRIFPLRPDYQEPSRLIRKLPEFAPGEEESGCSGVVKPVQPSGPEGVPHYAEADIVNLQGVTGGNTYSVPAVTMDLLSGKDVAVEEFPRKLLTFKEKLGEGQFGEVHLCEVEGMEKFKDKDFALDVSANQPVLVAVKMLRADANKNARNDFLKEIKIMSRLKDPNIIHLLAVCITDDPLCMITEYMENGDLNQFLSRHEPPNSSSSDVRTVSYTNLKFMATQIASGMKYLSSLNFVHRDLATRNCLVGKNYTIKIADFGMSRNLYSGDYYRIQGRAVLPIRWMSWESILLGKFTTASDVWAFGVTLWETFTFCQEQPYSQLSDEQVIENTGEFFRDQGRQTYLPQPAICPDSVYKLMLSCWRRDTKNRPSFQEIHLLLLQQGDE

Cdc7/cyclinB1(h) = biological target: T12, Cdc7/cyclinB1(h) (Homo sapiens, UniProt O00311)
T12 construct: purchased Eurofins (KinaseProfiler)

PAK2(h) = biological target: T13, PAK2(h) (Homo sapiens, UniProt Q13177)
T13 construct: purchased Eurofins (KinaseProfiler)

JAK1(h) = biological target: T14, JAK1(h) (Homo sapiens, UniProt P23458)
T14 construct: purchased Eurofins (KinaseProfiler)

PKCθ(h) = biological target: T15, PKCθ(h) (Homo sapiens, UniProt Q04759)
T15 construct: purchased Eurofins (KinaseProfiler)
T15 sequence (Q04759 whole entry): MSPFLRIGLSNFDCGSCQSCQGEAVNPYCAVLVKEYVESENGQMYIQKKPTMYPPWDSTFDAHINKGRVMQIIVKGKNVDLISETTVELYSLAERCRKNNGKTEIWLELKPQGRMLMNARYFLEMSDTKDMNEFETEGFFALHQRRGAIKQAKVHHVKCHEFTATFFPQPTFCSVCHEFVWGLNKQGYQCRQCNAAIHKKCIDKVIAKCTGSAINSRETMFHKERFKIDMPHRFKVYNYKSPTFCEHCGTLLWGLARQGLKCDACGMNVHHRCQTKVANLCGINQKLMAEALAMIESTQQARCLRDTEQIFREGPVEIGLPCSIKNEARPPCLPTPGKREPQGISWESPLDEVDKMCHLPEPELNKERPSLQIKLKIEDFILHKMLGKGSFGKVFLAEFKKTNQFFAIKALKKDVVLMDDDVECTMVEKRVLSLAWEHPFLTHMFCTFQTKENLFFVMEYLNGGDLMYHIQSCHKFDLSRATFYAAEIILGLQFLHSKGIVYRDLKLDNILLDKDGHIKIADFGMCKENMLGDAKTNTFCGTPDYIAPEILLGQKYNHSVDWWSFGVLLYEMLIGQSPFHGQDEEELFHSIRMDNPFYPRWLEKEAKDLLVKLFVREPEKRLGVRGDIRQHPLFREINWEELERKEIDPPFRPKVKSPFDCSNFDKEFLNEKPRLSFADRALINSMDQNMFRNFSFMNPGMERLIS

JAK2(h) = biological target: T16, JAK2(h) (Homo sapiens, UniProt O60674)
T16 construct: purchased Eurofins (KinaseProfiler)
T16 sequence (O60674 whole entry): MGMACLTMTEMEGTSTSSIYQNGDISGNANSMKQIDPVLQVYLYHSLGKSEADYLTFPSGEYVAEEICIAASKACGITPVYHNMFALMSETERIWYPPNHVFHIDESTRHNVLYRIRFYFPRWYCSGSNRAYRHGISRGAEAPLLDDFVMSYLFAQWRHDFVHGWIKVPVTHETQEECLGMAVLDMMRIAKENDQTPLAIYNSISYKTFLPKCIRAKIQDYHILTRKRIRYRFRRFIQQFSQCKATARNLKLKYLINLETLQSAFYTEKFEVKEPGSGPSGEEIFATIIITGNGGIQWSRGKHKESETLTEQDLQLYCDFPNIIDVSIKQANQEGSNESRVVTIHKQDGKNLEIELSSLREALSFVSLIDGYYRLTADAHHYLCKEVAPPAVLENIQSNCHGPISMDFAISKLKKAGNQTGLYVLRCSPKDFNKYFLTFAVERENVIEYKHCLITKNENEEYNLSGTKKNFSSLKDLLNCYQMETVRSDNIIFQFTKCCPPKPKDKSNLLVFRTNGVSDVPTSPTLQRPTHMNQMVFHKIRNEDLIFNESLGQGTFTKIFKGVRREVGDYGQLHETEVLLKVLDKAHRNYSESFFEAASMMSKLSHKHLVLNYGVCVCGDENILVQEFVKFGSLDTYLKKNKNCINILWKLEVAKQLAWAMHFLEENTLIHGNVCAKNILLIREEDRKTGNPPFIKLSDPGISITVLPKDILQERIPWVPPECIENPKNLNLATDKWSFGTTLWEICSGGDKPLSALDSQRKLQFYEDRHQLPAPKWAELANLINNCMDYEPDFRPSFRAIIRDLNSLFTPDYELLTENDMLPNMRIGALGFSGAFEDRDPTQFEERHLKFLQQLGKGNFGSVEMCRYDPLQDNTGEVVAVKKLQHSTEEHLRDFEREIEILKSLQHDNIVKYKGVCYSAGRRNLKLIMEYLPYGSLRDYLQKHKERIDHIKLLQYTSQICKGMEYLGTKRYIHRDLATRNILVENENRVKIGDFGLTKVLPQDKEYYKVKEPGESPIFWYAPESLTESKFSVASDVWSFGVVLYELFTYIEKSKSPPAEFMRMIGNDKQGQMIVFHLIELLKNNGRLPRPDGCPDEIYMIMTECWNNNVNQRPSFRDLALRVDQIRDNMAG

IRE1(h) = biological target: T17, IRE1(h) (Homo sapiens, UniProt O75460)
T17 construct: purchased Eurofins (KinaseProfiler)
T17 sequence (O75460 19-977): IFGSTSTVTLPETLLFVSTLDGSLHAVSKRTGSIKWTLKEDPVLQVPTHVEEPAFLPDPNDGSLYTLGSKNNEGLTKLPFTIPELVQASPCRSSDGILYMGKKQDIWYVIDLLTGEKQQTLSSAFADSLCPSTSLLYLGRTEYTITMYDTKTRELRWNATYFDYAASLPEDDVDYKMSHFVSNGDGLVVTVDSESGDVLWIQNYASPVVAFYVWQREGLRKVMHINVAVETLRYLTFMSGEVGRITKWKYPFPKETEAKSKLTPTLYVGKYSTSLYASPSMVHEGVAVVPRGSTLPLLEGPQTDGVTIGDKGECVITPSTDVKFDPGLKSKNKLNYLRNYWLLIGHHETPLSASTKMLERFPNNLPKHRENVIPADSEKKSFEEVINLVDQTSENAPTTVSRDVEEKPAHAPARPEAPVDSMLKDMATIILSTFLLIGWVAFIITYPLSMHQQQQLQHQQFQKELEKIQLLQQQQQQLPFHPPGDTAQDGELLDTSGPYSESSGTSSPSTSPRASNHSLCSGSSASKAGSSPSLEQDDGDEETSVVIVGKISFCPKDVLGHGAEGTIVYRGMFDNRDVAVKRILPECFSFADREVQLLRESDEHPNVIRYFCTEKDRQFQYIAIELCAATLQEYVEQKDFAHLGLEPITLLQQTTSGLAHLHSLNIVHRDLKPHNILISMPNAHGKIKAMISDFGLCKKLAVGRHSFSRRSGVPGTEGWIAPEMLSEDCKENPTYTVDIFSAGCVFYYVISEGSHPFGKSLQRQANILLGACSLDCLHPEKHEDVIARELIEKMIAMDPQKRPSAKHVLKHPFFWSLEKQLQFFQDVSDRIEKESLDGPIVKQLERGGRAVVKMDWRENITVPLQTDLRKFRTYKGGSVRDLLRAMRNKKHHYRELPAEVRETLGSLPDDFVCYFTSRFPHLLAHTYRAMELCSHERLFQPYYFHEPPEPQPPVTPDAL

In the case of `COc1cc(OC)c(Cl)c(-c2ccc3c(NC(=O)c4ccc(N5CCNC(C)(C)C5)cc4)n[nH]c3n2)c1Cl` [3D185], the inhibition at 0.01 µM (GRK5(h); 10 nM) was -1%, the inhibition at 0.1 µM (GRK5(h); 100 nM) was -9% and the inhibition at 1 µM (GRK5(h); 1000 nM) was 3%. It also gave an inhibition at 0.01 µM (PKCδ(h); 10 nM) of 5%, an inhibition at 0.1 µM (PKCδ(h); 100 nM) of 4% and an inhibition at 1 µM (PKCδ(h); 1000 nM) of -1%. The inhibition at 0.01 µM (Met(D1246N)(h); 10 nM) was -18%, the inhibition at 0.1 µM (Met(D1246N)(h); 100 nM) was -11% and the inhibition at 1 µM (Met(D1246N)(h); 1000 nM) was 3%. The inhibition at 0.01 µM (SAPK2b(h); 10 nM) was 3%, the inhibition at 0.1 µM (SAPK2b(h); 100 nM) was 14% and the inhibition at 1 µM (SAPK2b(h); 1000 nM) was 20%. For the same compound, the inhibition at 0.01 µM (Fgr(h); 10 nM) was 11%, the inhibition at 0.1 µM (Fgr(h); 100 nM) was 44% and the inhibition at 1 µM (Fgr(h); 1000 nM) was 89%. The inhibition at 0.01 µM (SAPK2a(h); 10 nM) was -7%, the inhibition at 0.1 µM (SAPK2a(h); 100 nM) was -2% and the inhibition at 1 µM (SAPK2a(h); 1000 nM) was -4%. It also gave an inhibition at 0.01 µM (CK1γ3(h); 10 nM) of 1%, an inhibition at 0.1 µM (CK1γ3(h); 100 nM) of -10% and an inhibition at 1 µM (CK1γ3(h); 1000 nM) of 12%. It also gave an inhibition at 0.01 µM (DAPK2(h); 10 nM) of 1%, an inhibition at 0.1 µM (DAPK2(h); 100 nM) of -8% and an inhibition at 1 µM (DAPK2(h); 1000 nM) of 2%. The inhibition at 0.01 µM (MAPK1(h); 10 nM) was -5%, the inhibition at 0.1 µM (MAPK1(h); 100 nM) was -6% and the inhibition at 1 µM (MAPK1(h); 1000 nM) was 0%. The inhibition at 0.01 µM (cKit(V560G)(h); 10 nM) was 10%, the inhibition at 0.1 µM (cKit(V560G)(h); 100 nM) was 38% and the inhibition at 1 µM (cKit(V560G)(h); 1000 nM) was 71%. It also gave an inhibition at 0.01 µM (DDR2(h); 10 nM) of 0%, an inhibition at 0.1 µM (DDR2(h); 100 nM) of 7% and an inhibition at 1 µM (DDR2(h); 1000 nM) of 54%. The inhibition at 0.01 µM (Cdc7/cyclinB1(h); 10 nM) was 5%, the inhibition at 0.1 µM (Cdc7/cyclinB1(h); 100 nM) was -5% and the inhibition at 1 µM (Cdc7/cyclinB1(h); 1000 nM) was 8%. It also gave an inhibition at 0.01 µM (PAK2(h); 10 nM) of 5%, an inhibition at 0.1 µM (PAK2(h); 100 nM) of -5% and an inhibition at 1 µM (PAK2(h); 1000 nM) of -5%. The inhibition at 0.01 µM (JAK1(h); 10 nM) was 13%, the inhibition at 0.1 µM (JAK1(h); 100 nM) was 15% and the inhibition at 1 µM (JAK1(h); 1000 nM) was 20%. For the same compound, the inhibition at 0.01 µM (PKCθ(h); 10 nM) was -3%, the inhibition at 0.1 µM (PKCθ(h); 100 nM) was -4% and the inhibition at 1 µM (PKCθ(h); 1000 nM) was 1%. The inhibition at 0.01 µM (JAK2(h); 10 nM) was -14%, the inhibition at 0.1 µM (JAK2(h); 100 nM) was 5% and the inhibition at 1 µM (JAK2(h); 1000 nM) was 6%. The inhibition at 0.01 µM (IRE1(h); 10 nM) was -1%, the inhibition at 0.1 µM (IRE1(h); 100 nM) was -13% and the inhibition at 1 µM (IRE1(h); 1000 nM) was 6%.
